Read-outs that look alike come from different tables or passages of the source.
System: 6C3HED lymphosarcoma
Assay: animal or person
Format: in vivo, C3H mice
Details: for Toxic/Total (mice which died relative to total number of animals in the group): mouse, in vivo
Experimental: The compounds were tested in C3H mice bearing a 6C3HED lymphosarcoma, also known as the Gardner lymphosarcoma (GLS). The 6C3HED lymphosarcoma was obtained from the Division of Cancer Treatment, National Cancer Institute, Tumor Bank, maintained at E. G. and G. Mason Research (Worcester, Massachusetts).
First passage tumor was stored in liquid nitrogen using standard techniques. The transplanted tumor was reestablished from the Tumor Bank every six months or as needed. The tumor was maintained by serial passage twice weekly in C3H mice.
In the procedures utilized here, the tumor was removed from passage animals and minced into 1- to 3-mm cubic fragments using sterile techniques. Tumor pieces were checked for sterility using both Antibiotic Medium 1 and Brain Heart Infusion (Difco, Detroit, Michigan). The tumor pieces were implanted into the recipient C3H mice subcutaneously in an auxillary site by trochar.
Drug therapy on the appropriate schedule was initiated seven days after tumor implantation. The compound being tested was mixed with 2.5% Emulphor EL620 from GAF Corporation (1:40 dilution in 0.9% saline). The total dosage volume for each administration was 0.5 mL. All animals were weighed at the beginning and end of administration of the subject compounds. Food and water were provided ad libitum
Each control group and each dosage level of the treated groups generally consisted of 10 mice selected at random from the pool of implanted animals. The formulations were administered orally by gavage with the use of an 18-gauge needle. Compounds were dosed daily for 10 days.
The tumor was measured five days after treatment ended with two dimensional measurements (width and length) of the tumor taken using digital electronic calipers interfaced to a microcomputer. J. F. Worzalla, et al.. Investicational New Drugs. 8:241-251 (1990). Tumor weights were calculated from these measurements using the following formula:
Tumor weight (mg)=[tumor length (mm)×[tumor width (mm)]2].div.2
At least one control group of an equal number of mice was treated with the same volume of 2.5% Emulphor only. The percent inhibition was determined by subtracting the ratio of the mean tumor size of the test group relative to the control group from one and multiplying the result by 100.
The results of several experiments in mice bearing the 6C3HED lymphosarcoma when the instant compounds were administered orally are provided in the following table. In this table, column 1 gives the example number of the compound of Formula I administered; column 2 gives the dosage level of the compound in milligrams per kilogram of body weight; column 3 describes the percent inhibition of tumor growth; and column 4 tallies the number of mice which died during the course of the experiment relative to the total number of animals in the group.

[1] = Mus musculus, 6C3HED, 120 h, oral gavage, daily for 10 days, tumor measured five days after treatment ended, read-out: Percent Inhibition of tumor growth
[2] = Mus musculus, 6C3HED, 240 h, second listing (groups of 8), oral gavage, daily for 10 days, read-out: Percent Inhibition of tumor growth

For `O=C(Nc1ccc(Cl)cc1)NS(=O)(=O)c1cc2ccccc2o1` [Example 1, N-[[(4-chlorophenyl)amino]carbonyl]-2-benzofuransulfonamide], the inhibition in vivo at 150 mg/kg [1] was 84% and the “Toxic/Total (mice which died relative to total number of animals in the group)” value was 4/10.

`Cc1ccc(NC(=O)NS(=O)(=O)c2cc3ccccc3o2)cc1` [Example 2, N-[[(4-methylphenyl)amino]carbonyl]-2-benzofuransulfonamide] was tested, and the inhibition in vivo at 150 mg/kg [1] was 11%, the inhibition in vivo at 300 mg/kg [1] was 37% and the “Toxic/Total (mice which died relative to total number of animals in the group)” value was 0/10.

`O=C(Nc1ccc(Cl)c(Cl)c1)NS(=O)(=O)c1cc2ccccc2o1` [Example 3, N-[[(3,4 dichlorophenyl)amino]carbonyl]-2-benzofuransulfonamide] showed an inhibition in vivo at 150 mg/kg [1] of 28% and an inhibition in vivo at 300 mg/kg [1] of 28%.

With `O=C(Nc1ccc(Br)cc1)NS(=O)(=O)c1cc2ccccc2o1` [Example 4, N-[[(4-bromophenyl)amino]carbonyl]-2-benzofuransulfonamide] the inhibition in vivo at 150 mg/kg [1] was 48% and the “Toxic/Total (mice which died relative to total number of animals in the group)” value was 1/10.

Work on `O=C(Nc1ccc(Cl)cc1)NS(=O)(=O)c1cccc2occc12` [Example 5, N-[[(4-chlorophenyl)amino]carbonyl]-4-benzofuransulfonamide] yielded an inhibition in vivo at 150 mg/kg [1] of 84% and an inhibition in vivo at 300 mg/kg [1] of 100%.

For `O=C(Nc1ccc(Cl)cc1)NS(=O)(=O)c1ccc2occc2c1` [Example 6, N-[[(4-chlorophenyl)amino]carbonyl]-5-benzofuransulfonamide hemihydrate], the inhibition in vivo at 10 mg/kg (Mus musculus, 6C3HED, 120 h, 10 mg/kg, oral gavage, daily for 10 days, tumor measured five days after treatment ended, read-out: Percent Inhibition of tumor growth) was 0%, the inhibition in vivo at 20 mg/kg [1] was 7% and the inhibition in vivo at 40 mg/kg [1] was 53%. The inhibition in vivo at 80 mg/kg [1] was 96% and the inhibition in vivo at 150 mg/kg [1] was 100%.

For `Cc1ccc(NC(=O)NS(=O)(=O)c2ccc3occc3c2)cc1` [Example 7, N-[[(4-methylphenyl)amino]carbonyl]-5-benzofuransulfonamide], the inhibition in vivo at 150 mg/kg [1] was 84% and the inhibition in vivo at 300 mg/kg [1] was 100%.

For `O=C(Nc1ccc(Cl)cc1)NS(=O)(=O)c1ccc2ccoc2c1` [Example 8, N-[[(4-chlorophenyl)amino]carbonyl]-6-benzofuransulfonamide], the inhibition in vivo at 20 mg/kg [1] was 45%, the inhibition in vivo at 40 mg/kg [1] was 45% and the inhibition in vivo at 80 mg/kg [1] was 93%. The inhibition in vivo at 160 mg/kg (Mus musculus, 6C3HED, 120 h, 160 mg/kg, oral gavage, daily for 10 days, tumor measured five days after treatment ended, read-out: Percent Inhibition of tumor growth) was 100%, the inhibition in vivo at 40 mg/kg [2] was 92% and the inhibition in vivo at 80 mg/kg [2] was 98%.

`O=C(Nc1ccc(Cl)cc1)NS(=O)(=O)c1cc2ccccc2[nH]1` [Example 9, N-[[(4-chlorophenyl)amino]carbonyl]-lH-indole-2-sulfonamide] gave an inhibition in vivo at 150 mg/kg [1] of 26% and an inhibition in vivo at 300 mg/kg [1] of 57%.

`O=C(Nc1ccc(Cl)cc1)NS(=O)(=O)c1ccc2cc[nH]c2c1` [Example 10, N-[[(4-chlorophenyl)amino]carbonyl]-lH-indole-6-sulfonamide] was tested, and the inhibition in vivo at 150 mg/kg [1] was 37%, the inhibition in vivo at 300 mg/kg [1] was 80% and the “Toxic/Total (mice which died relative to total number of animals in the group)” value was 0/10.

Compound `O=C(Nc1ccc(Cl)cc1)NS(=O)(=O)c1cc2ccccc2s1` [Example 11, N-[[(4-chlorophenyl)amino]carbonyl]benzo[B]thiophene-2-sulfonamide] has an inhibition in vivo at 150 mg/kg [1] of 47% and an inhibition in vivo at 300 mg/kg [1] of 66%.

`O=C(Nc1ccc(Cl)cc1)NS(=O)(=O)c1csc2ccccc12` [Example 12, N-[[(4-chlorophenyl)amino]carbonyl]benzo[B]thiophene-3-sulfonamide] was tested, and the inhibition in vivo at 150 mg/kg [1] was 43%, the inhibition in vivo at 300 mg/kg [1] was 69% and the “Toxic/Total (mice which died relative to total number of animals in the group)” value was 0/10.

For `O=C(Nc1ccc(Cl)cc1)NS(=O)(=O)c1ccc2sccc2c1` [Example 13, N-[[(4-chlorophenyl)amino]carbonyl]benzo[B]thiophene-5-sulfonamide], the inhibition in vivo at 40 mg/kg [1] was 8%, the inhibition in vivo at 80 mg/kg [1] was 44% and the “Toxic/Total (mice which died relative to total number of animals in the group)” value was 0/8.

— patent US5169860A, “Antitumor compositions and methods of treatment” (Eli Lilly and Company, priority 1992, dated 1992)
